In patent US5298492A, “Diamino acid derivatives as antihypertensives” (Schering Corporation, priority 1992, dated 1994):

Assays:
[1] = molecular target: ACE (angiotensin converting enzyme) (Homo sapiens, UniProt P12821); assay: ACE inhibition IC50; type: biochemical
[2] = molecular target: NEP (neutral endopeptidase) (Homo sapiens, UniProt P08473); assay: NEP inhibition IC50; type: biochemical
NEP (neutral endopeptidase), sequence (P08473 whole entry, species assumed): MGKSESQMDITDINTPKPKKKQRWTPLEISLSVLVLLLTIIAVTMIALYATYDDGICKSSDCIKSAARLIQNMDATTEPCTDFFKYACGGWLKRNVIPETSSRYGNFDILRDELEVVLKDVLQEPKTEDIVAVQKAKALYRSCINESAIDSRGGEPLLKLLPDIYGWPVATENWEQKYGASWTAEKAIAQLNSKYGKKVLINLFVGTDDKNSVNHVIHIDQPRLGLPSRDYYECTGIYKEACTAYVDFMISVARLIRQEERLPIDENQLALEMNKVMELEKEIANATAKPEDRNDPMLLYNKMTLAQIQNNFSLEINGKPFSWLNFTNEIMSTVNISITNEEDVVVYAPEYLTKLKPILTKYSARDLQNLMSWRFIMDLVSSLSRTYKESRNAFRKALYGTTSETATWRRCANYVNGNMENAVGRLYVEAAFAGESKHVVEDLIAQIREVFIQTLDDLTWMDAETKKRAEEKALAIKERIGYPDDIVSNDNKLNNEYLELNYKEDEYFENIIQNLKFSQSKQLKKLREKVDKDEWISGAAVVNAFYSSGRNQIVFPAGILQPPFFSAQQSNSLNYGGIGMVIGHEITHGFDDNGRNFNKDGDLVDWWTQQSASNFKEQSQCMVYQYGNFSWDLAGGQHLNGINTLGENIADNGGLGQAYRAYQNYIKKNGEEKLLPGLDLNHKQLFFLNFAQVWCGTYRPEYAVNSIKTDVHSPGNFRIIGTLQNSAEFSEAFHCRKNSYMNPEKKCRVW

ACE (angiotensin converting enzyme), sequence (P12821 30-1306, species assumed): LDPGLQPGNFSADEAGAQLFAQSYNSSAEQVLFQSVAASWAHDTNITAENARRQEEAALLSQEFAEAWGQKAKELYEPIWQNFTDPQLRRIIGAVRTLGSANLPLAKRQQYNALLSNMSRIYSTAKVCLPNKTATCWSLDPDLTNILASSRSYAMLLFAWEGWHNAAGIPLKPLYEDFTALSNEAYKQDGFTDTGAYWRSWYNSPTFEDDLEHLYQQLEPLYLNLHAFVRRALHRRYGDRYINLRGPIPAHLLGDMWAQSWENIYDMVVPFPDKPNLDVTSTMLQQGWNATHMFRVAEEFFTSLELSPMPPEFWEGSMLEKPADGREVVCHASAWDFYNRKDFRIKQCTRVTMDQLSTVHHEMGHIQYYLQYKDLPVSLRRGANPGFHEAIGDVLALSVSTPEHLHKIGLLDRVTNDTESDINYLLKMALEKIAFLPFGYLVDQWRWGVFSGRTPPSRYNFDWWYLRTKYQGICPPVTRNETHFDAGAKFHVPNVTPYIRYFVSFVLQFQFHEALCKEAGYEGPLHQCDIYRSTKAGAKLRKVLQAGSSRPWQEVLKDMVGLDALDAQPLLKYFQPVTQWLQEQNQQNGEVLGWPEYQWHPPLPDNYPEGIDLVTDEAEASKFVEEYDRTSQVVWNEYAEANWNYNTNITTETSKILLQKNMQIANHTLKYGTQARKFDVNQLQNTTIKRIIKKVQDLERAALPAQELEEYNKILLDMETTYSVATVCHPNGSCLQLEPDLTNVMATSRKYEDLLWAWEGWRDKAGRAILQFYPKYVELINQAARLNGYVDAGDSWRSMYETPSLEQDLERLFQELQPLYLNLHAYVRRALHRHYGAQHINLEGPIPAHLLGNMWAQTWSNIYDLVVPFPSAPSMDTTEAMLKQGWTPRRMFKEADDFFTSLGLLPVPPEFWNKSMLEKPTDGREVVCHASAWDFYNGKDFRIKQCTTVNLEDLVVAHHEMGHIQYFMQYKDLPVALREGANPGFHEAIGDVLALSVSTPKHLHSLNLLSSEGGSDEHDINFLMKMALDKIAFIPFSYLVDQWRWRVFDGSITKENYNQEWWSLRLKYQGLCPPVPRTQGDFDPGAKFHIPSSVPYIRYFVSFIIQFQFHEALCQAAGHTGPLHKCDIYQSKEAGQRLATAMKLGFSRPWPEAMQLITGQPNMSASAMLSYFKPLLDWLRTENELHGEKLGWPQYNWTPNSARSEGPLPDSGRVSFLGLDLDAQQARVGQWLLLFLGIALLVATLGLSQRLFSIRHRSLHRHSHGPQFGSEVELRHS

Compound | IC50 [1] | IC50 [2]
CS(=O)(=O)Nc1cccc(C[C@H](NC(=O)[C@H](Cc2ccccc2)N[C@@H](CNC(=O)[C@H](CCCCN)NS(C)(=O)=O)C(=O)O)C(=O)O)c1 | 15 nM | 25 nM
CCC[C@H](N[C@@H](CNC(=O)[C@H](CCCCNC(=O)OCc1ccccc1)NS(C)(=O)=O)C(=O)O)C(=O)N[C@@H](Cc1cccc(NS(C)(=O)=O)c1)C(=O)OCC | 400 nM | 70 nM
NCCCCCC(=O)NC[C@H](N[C@@H](Cc1ccccc1)C(=O)N[C@@H](Cc1ccc(O)cc1)C(=O)O)C(=O)O [drawing 100: R1=H; R5=OH; R6=OH; Z=NH2] | 60 nM | 16 nM
CCC[C@H](N[C@@H](CNC(=O)[C@H](CCCCNC(=O)OCc1ccccc1)NS(C)(=O)=O)C(=O)O)C(=O)N[C@@H](Cc1ccc(O)cc1)C(=O)OC | 300 nM | 78 nM
COC(=O)[C@H](CNC(=O)[C@H](CCCCNC(=O)OCc1ccccc1)NS(C)(=O)=O)N[C@H](C(=O)N[C@@H](Cc1ccc(O)cc1)C(=O)O)C(C)C | > 1000 nM | 240 nM
CS(=O)(=O)N[C@@H](CCCCNC(=O)OCc1ccccc1)C(=O)NC[C@H](N[C@@H](Cc1ccccc1)C(=O)N[C@@H](Cc1ccc(O)cc1)C(=O)O)C(=O)O | 9 nM | 18 nM
O=C(CCCCCNC(=O)OCc1ccccc1)NC[C@H](N[C@@H](Cc1ccccc1)C(=O)N[C@@H](Cc1ccc(O)cc1)C(=O)O)C(=O)O [drawing 100: R1=H; R5=OH; R6=OH; Z=CbzNH] | 65 nM | 30 nM
CS(=O)(=O)N[C@@H](CCCCN)C(=O)NC[C@H](N[C@@H](Cc1ccccc1)C(=O)N[C@@H](Cc1ccc(O)cc1)C(=O)OCCc1ccccc1)C(=O)O | 175 nM | 68 nM
CCC[C@H](N[C@@H](CNC(=O)[C@H](CCCCNC(=O)OCc1ccccc1)NS(C)(=O)=O)C(=O)O)C(=O)N[C@@H](Cc1ccc(O)cc1)C(=O)O | 15 nM | 2 nM
CCOC(=O)[C@H](CNC(=O)[C@H](CCCCNC(=O)OCc1ccccc1)NS(C)(=O)=O)N[C@@H](Cc1ccccc1)C(=O)N[C@@H](Cc1ccc(O)cc1)C(=O)O | > 1000 nM | > 300 nM
CCN=C(NCC)NCCCC[C@H](NS(C)(=O)=O)C(=O)NC[C@H](N[C@@H](Cc1ccccc1)C(=O)N[C@@H](Cc1ccc(O)cc1)C(=O)O)C(=O)O | 8 nM | 95 nM
CCC[C@H](N[C@@H](CNC(=O)[C@H](CCCCN)NS(C)(=O)=O)C(=O)O)C(=O)N[C@@H](Cc1cccc(NS(C)(=O)=O)c1)C(=O)O | 40 nM | 200 nM
CCOC(=O)[C@H](Cc1ccc(O)cc1)NC(=O)[C@H](Cc1ccccc1)N[C@@H](CNC(=O)[C@H](CCCCNC(=O)OCc1ccccc1)NS(C)(=O)=O)C(=O)O | 50 nM | 38 nM

Next, values leading:

IC50 [1] | IC50 [2] | Compound
 | 190 nM | CS(=O)(=O)N[C@@H](CCCCN)C(=O)NC[C@H](NC1(C(=O)N[C@@H](Cc2ccc(O)cc2)C(=O)O)CCCCC1)C(=O)O
650 nM | 40 nM | CCOC(=O)[C@H](Cc1ccc(O)cc1)NC(=O)[C@H](Cc1ccccc1)N[C@@H](CNC(=O)[C@H](CCCCN)NS(C)(=O)=O)C(=O)O
150 nM | > 300 nM | CS(=O)(=O)N[C@@H](CCCCN)C(=O)NC[C@H](NC1(C(=O)N[C@@H](Cc2ccc(O)cc2)C(=O)O)CC1)C(=O)O
30 nM | 2 nM | CC(C)[C@H](N[C@@H](CNC(=O)[C@H](CCCCNC(=O)OCc1ccccc1)NS(C)(=O)=O)C(=O)O)C(=O)N[C@@H](Cc1ccc(O)cc1)C(=O)O
45 nM | 35 nM | CS(=O)(=O)N[C@@H](CCCCN)C(=O)NC[C@H](NC1(C(=O)N[C@@H](Cc2ccc(O)cc2)C(=O)O)CCCC1)C(=O)O
> 1000 nM | 300 nM | CCOC(=O)[C@H](CNC(=O)[C@H](CCCCN)NS(C)(=O)=O)N[C@@H](Cc1ccccc1)C(=O)N[C@@H](Cc1ccc(O)cc1)C(=O)O
15 nM | 40 nM | CS(=O)(=O)N[C@@H](CCCCN)C(=O)NC[C@H](NC(C(=O)N[C@@H](Cc1ccc(O)cc1)C(=O)O)C1CC1)C(=O)O (single isomer, unassigned) [listing 1 of 2 here]
50 nM | 35 nM | CS(=O)(=O)N[C@@H](CCCCN)C(=O)NC[C@H](N[C@@H](Cc1ccccc1)C(=O)N[C@@H](Cc1ccc(O)cc1)C(=O)O)C(=O)O [drawing 100: R1=CH3SO2NH; R5=OH; R6=OH; Z=NH2]
250 nM | > 300 nM | CS(=O)(=O)N[C@@H](CCCCNC(=O)OCc1ccccc1)C(=O)NC[C@H](N[C@H](C(=O)N[C@@H](Cc1ccc(O)cc1)C(=O)O)C1CCCCC1)C(=O)O
300 nM | > 300 nM | CS(=O)(=O)N[C@@H](CCCCN)C(=O)NC[C@H](NC(C(=O)N[C@@H](Cc1ccc(O)cc1)C(=O)O)C1CC1)C(=O)O (single isomer, unassigned) [listing 2 of 2 here]
 | 270 nM | CCC[C@H](N[C@@H](CNC(=O)[C@H](CCCCN)NS(C)(=O)=O)C(=O)O)C(=O)N[C@@H](Cc1ccc(O)cc1)C(=O)OC
> 1000 nM | > 300 nM | COC(=O)[C@H](CNC(=O)[C@H](CCCCN)NS(C)(=O)=O)N[C@H](C(=O)N[C@@H](Cc1ccc(O)cc1)C(=O)O)C(C)C
 | 42 nM | CS(=O)(=O)N[C@@H](CCCCN)C(=O)NC[C@H](NC1(C(=O)N[C@@H](Cc2ccc(O)cc2)C(=O)O)CCC1)C(=O)O
30 nM | 6 nM | CCC[C@H](N[C@@H](CNC(=O)[C@H](CCCCN)NS(C)(=O)=O)C(=O)O)C(=O)N[C@@H](Cc1ccc(O)cc1)C(=O)O
50 nM | 7 nM | CC(C)[C@H](N[C@@H](CNC(=O)[C@H](CCCCN)NS(C)(=O)=O)C(=O)O)C(=O)N[C@@H](Cc1ccc(O)cc1)C(=O)O
121 nM | > 300 nM | CS(=O)(=O)N[C@@H](CCCCN)C(=O)NC[C@H](N[C@H](C(=O)N[C@@H](Cc1ccc(O)cc1)C(=O)O)C1CCCCC1)C(=O)O
